Results on 20 molecules are retold here after the supplement of paper PMC11368000.

The structures appear in SMILES notation. A value given as a limit tells only on which side of the number the result lay.

One test has as its system 1565 (donor line of iPSC-derived cardiomyocytes). Description: POD (EC95) for loss of peak frequency (asystole) vs vehicle; higher = less potent (higher point of departure). The conditions noted are these: exposure time: 90 min. How it is done: (§1)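 Human iPSC-derived cardiomyocytes from 16 donors were exposed for 90 min at 37 °C to each PFAS at 0.1, 1, 10 and 100 µM in 0.5% DMSO, 384-well plates. Kinetic Ca2+ flux (FLIPR) and Hoechst nuclei counts were normalised to vehicle wells and fitted with a hierarchical Bayesian Hill model to give donor-specific PODs: EC05 for beat-rate increase or decrease and for decay-to-rise ratio increase (QT proxy), EC95 for peak-frequency loss (asystole), EC10 for total cell number loss. 0.03 µM is the lower bound.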
`O=C(O)CCC(F)(F)C(F)(F)C(F)(F)C(F)(F)C(F)(F)C(F)(F)C(F)(F)F` [3-Perfluoroheptylpropanoic_acid] registered a POD vs vehicle of over 100 µM.

Molecule `O=C(O)CCC(F)(F)C(F)(F)C(F)(F)F` [3:3 Fluorotelomer carboxylic acid] registered a POD vs vehicle of over 100 µM.

For `O=C(CC(=O)C(F)(F)C(F)(F)F)C(F)(F)F` [3H,3H-Perfluoro-2,4-hexanedione], the POD vs vehicle is over 100 µM.

Molecule `OCCC(F)(F)C(F)(F)C(F)(F)C(F)(F)F` [4:2 Fluorotelomer alcohol] showed a POD vs vehicle of over 100 µM.

As for `O=S(=O)(O)CCC(F)(F)C(F)(F)C(F)(F)C(F)(F)F` [4:2 Fluorotelomer sulfonic acid], the POD vs vehicle was over 100 µM.

On to `OCC(F)(F)C(F)(F)C(F)(F)C(F)(F)C(F)(F)C(F)(F)F` [6:1 Fluorotelomer alcohol], for which the POD vs vehicle was over 100 µM.

With `OCCC(F)(F)C(F)(F)C(F)(F)C(F)(F)C(F)(F)C(F)(F)F` [6:2 Fluorotelomer alcohol], the POD vs vehicle is over 100 µM.

Turning to `O=S(=O)(O)CCC(F)(F)C(F)(F)C(F)(F)C(F)(F)C(F)(F)C(F)(F)F` [6:2 Fluorotelomer sulfonic acid], the POD vs vehicle was over 100 µM.

In turn, `OCCC(F)(F)C(F)(F)C(F)(F)C(F)(F)C(F)(F)C(F)(F)C(F)(F)C(F)(F)F` [8:2 Fluorotelomer alcohol] displayed a POD vs vehicle of over 100 µM.

The molecule `CN(CCO)S(=O)(=O)C(F)(F)C(F)(F)C(F)(F)C(F)(F)C(F)(F)C(F)(F)C(F)(F)C(F)(F)F` [N-Methyl-N-(2-hydroxyethyl)perfluorooctanesulfonamide] displayed a POD vs vehicle of over 100 µM.

A further test relates to 1309 (donor line of iPSC-derived cardiomyocytes). The test is described as above. As to conditions: exposure time: 90 min. The procedure: as §1
`NC(=O)C(F)(F)C(F)(F)C(F)(F)C(F)F`: the POD vs vehicle was over 100 µM.

Regarding `OCC(O)CC(F)(F)C(F)(F)C(F)(F)C(F)(F)C(F)(F)C(F)(F)C(F)(F)C(F)(F)F` (stereo not given) [1-(Perfluorofluorooctyl)propane-2,3-diol], the POD vs vehicle is over 100 µM.

In turn, `CC(O)C(F)(F)C(F)(F)F` (stereo not given) [1-Pentafluoroethylethanol] returned a POD vs vehicle of over 100 µM.

The molecule `OCC(F)(F)C(F)(F)C(F)(F)C(F)F` [1H,1H,5H-Perfluoropentanol] returned a POD vs vehicle of over 100 µM.

`O=S(=O)(OCC(F)(F)F)C(F)(F)C(F)(F)C(F)(F)C(F)(F)F` [2,2,2-Trifluoroethyl_perfluorobutanesulfonate]: the POD vs vehicle is over 100 µM.

Consider `O=C(O)C(F)(F)C(F)(F)C(F)F` [2,2,3,3,4,4-Hexafluorobutanoic_acid], for which the POD vs vehicle was over 100 µM.

In the case of `NC(O)(C(F)(F)F)C(F)(F)F` [2-Aminohexafluoropropan-2-ol], the POD vs vehicle was over 100 µM.

In turn, `O=C(O)CCC(F)(F)C(F)(F)C(F)(F)C(F)(F)C(F)(F)F` [2H,2H,3H,3H-Perfluorooctanoic_acid] came in with a POD vs vehicle of over 100 µM.

Molecule `O=C(O)C=C(C(F)(F)F)C(F)(F)F` [3,3-Bis(trifluoromethyl)-2-propenoic_acid] had a POD vs vehicle of over 100 µM.

The molecule `O=C(O)C=CC(F)(C(F)(F)F)C(F)(F)F` [3-(Perfluoroisopropyl)-2-propenoic_acid] displayed a POD vs vehicle of over 100 µM.

`O=C(O)CCC(F)(F)C(F)(F)C(F)(F)C(F)(F)C(F)(F)C(F)(F)C(F)(F)F` [3-Perfluoroheptylpropanoic_acid]: the POD vs vehicle is over 100 µM.

As to `O=C(O)CCC(F)(F)C(F)(F)C(F)(F)F` [3:3 Fluorotelomer carboxylic acid], the POD vs vehicle was over 100 µM.

Turning to `O=C(CC(=O)C(F)(F)C(F)(F)F)C(F)(F)F` [3H,3H-Perfluoro-2,4-hexanedione], the POD vs vehicle is over 100 µM.

Molecule `OCCC(F)(F)C(F)(F)C(F)(F)C(F)(F)F` [4:2 Fluorotelomer alcohol] displayed a POD vs vehicle of over 100 µM.

The molecule `O=S(=O)(O)CCC(F)(F)C(F)(F)C(F)(F)C(F)(F)F` [4:2 Fluorotelomer sulfonic acid] displayed a POD vs vehicle of over 100 µM.

`OCC(F)(F)C(F)(F)C(F)(F)C(F)(F)C(F)(F)C(F)(F)F` [6:1 Fluorotelomer alcohol] came in with a POD vs vehicle of over 100 µM.

The molecule `OCCC(F)(F)C(F)(F)C(F)(F)C(F)(F)C(F)(F)C(F)(F)F` [6:2 Fluorotelomer alcohol] registered a POD vs vehicle of over 100 µM.

`O=S(=O)(O)CCC(F)(F)C(F)(F)C(F)(F)C(F)(F)C(F)(F)C(F)(F)F` [6:2 Fluorotelomer sulfonic acid] came in with a POD vs vehicle of over 100 µM.

Take `OCCC(F)(F)C(F)(F)C(F)(F)C(F)(F)C(F)(F)C(F)(F)C(F)(F)C(F)(F)F` [8:2 Fluorotelomer alcohol]: the POD vs vehicle is over 100 µM.

For the molecule `CN(CCO)S(=O)(=O)C(F)(F)C(F)(F)C(F)(F)C(F)(F)C(F)(F)C(F)(F)C(F)(F)C(F)(F)F` [N-Methyl-N-(2-hydroxyethyl)perfluorooctanesulfonamide], the POD vs vehicle was over 100 µM.

The test system of a further test is 20032 (donor line of iPSC-derived cardiomyocytes). The test is described as above. The conditions noted are these: exposure time: 90 min. The procedure:
as §1
In turn, `NC(=O)C(F)(F)C(F)(F)C(F)(F)C(F)F` gave a POD vs vehicle of over 100 µM.

In turn, `OCC(O)CC(F)(F)C(F)(F)C(F)(F)C(F)(F)C(F)(F)C(F)(F)C(F)(F)C(F)(F)F` (stereo not given) [1-(Perfluorofluorooctyl)propane-2,3-diol] registered a POD vs vehicle of over 100 µM.

Regarding `CC(O)C(F)(F)C(F)(F)F` (stereo not given) [1-Pentafluoroethylethanol], the POD vs vehicle is over 100 µM.

`OCC(F)(F)C(F)(F)C(F)(F)C(F)F` [1H,1H,5H-Perfluoropentanol] gave a POD vs vehicle of over 100 µM.

On to `O=S(=O)(OCC(F)(F)F)C(F)(F)C(F)(F)C(F)(F)C(F)(F)F` [2,2,2-Trifluoroethyl_perfluorobutanesulfonate], for which the POD vs vehicle was over 100 µM.

Molecule `O=C(O)C(F)(F)C(F)(F)C(F)F` [2,2,3,3,4,4-Hexafluorobutanoic_acid] came in with a POD vs vehicle of over 100 µM.

In turn, `NC(O)(C(F)(F)F)C(F)(F)F` [2-Aminohexafluoropropan-2-ol] returned a POD vs vehicle of over 100 µM.

`O=C(O)CCC(F)(F)C(F)(F)C(F)(F)C(F)(F)C(F)(F)F` [2H,2H,3H,3H-Perfluorooctanoic_acid]: the POD vs vehicle was over 100 µM.

In turn, `O=C(O)C=C(C(F)(F)F)C(F)(F)F` [3,3-Bis(trifluoromethyl)-2-propenoic_acid] gave a POD vs vehicle of over 100 µM.

Molecule `O=C(O)C=CC(F)(C(F)(F)F)C(F)(F)F` [3-(Perfluoroisopropyl)-2-propenoic_acid] came in with a POD vs vehicle of over 100 µM.

Molecule `O=C(O)CCC(F)(F)C(F)(F)C(F)(F)C(F)(F)C(F)(F)C(F)(F)C(F)(F)F` [3-Perfluoroheptylpropanoic_acid] had a POD vs vehicle of over 100 µM.

`O=C(O)CCC(F)(F)C(F)(F)C(F)(F)F` [3:3 Fluorotelomer carboxylic acid]: the POD vs vehicle was over 100 µM.

`O=C(CC(=O)C(F)(F)C(F)(F)F)C(F)(F)F` [3H,3H-Perfluoro-2,4-hexanedione] showed a POD vs vehicle of over 100 µM.

In turn, `OCCC(F)(F)C(F)(F)C(F)(F)C(F)(F)F` [4:2 Fluorotelomer alcohol] had a POD vs vehicle of over 100 µM.

The molecule `O=S(=O)(O)CCC(F)(F)C(F)(F)C(F)(F)C(F)(F)F` [4:2 Fluorotelomer sulfonic acid] had a POD vs vehicle of over 100 µM.

In the case of `OCC(F)(F)C(F)(F)C(F)(F)C(F)(F)C(F)(F)C(F)(F)F` [6:1 Fluorotelomer alcohol], the POD vs vehicle is over 100 µM.

Molecule `OCCC(F)(F)C(F)(F)C(F)(F)C(F)(F)C(F)(F)C(F)(F)F` [6:2 Fluorotelomer alcohol] showed a POD vs vehicle of over 100 µM.

`O=S(=O)(O)CCC(F)(F)C(F)(F)C(F)(F)C(F)(F)C(F)(F)C(F)(F)F` [6:2 Fluorotelomer sulfonic acid] registered a POD vs vehicle of over 100 µM.

As for `OCCC(F)(F)C(F)(F)C(F)(F)C(F)(F)C(F)(F)C(F)(F)C(F)(F)C(F)(F)F` [8:2 Fluorotelomer alcohol], the POD vs vehicle was over 100 µM.

As for `CN(CCO)S(=O)(=O)C(F)(F)C(F)(F)C(F)(F)C(F)(F)C(F)(F)C(F)(F)C(F)(F)C(F)(F)F` [N-Methyl-N-(2-hydroxyethyl)perfluorooctanesulfonamide], the POD vs vehicle is over 100 µM.
